Reference: patent US8722887B2, “Sulfonylpyrazole and sulfonylpyrazoline carboxamidine derivatives as 5-HT6 antagonists” (Abbvie Bahamas, Ltd., priority 2006, dated 2014)
pKi: −log10 of the molar value. Like-named read-outs stand apart in the source and are kept apart here.

Tests used:
[1] = molecular target: T1, 5-HT6 receptor (Homo sapiens, UniProt P50406); test: In vitro affinity for human 5-HT6 receptors, [3H]-LSD binding in CHO cell membranes; parameters: host or cells: CHO/Gα16/mtAEQ/h5HT6-A1 (CHO AequoScreen recombinant cell line); details: for Ki: [3H]-LSD 5.0 nM, membranes of CHO cells transfected with human 5-HT6, read-out: 5-HT6 pKi (converted)
T1 sequence (P50406 whole entry): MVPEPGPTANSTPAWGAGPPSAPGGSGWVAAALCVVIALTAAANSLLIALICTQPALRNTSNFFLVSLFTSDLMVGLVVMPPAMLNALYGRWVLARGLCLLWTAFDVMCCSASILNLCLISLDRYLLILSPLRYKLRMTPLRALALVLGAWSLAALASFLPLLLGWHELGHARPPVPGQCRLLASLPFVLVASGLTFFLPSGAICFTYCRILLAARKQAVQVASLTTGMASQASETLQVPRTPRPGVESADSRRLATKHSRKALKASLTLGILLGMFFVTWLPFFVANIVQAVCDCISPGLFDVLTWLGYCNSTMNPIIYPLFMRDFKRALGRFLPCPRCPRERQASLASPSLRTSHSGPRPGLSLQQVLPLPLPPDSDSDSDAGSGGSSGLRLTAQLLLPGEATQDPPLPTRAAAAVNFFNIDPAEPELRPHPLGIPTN
Method: Affinity for human 5-HT6 receptors was measured in a membrane preparation of CHO-cells transfected with human 5-HT6 receptors by binding studies using [^3H]-N-Methyl-Lysergic acid diethylamide ([^3H]-LSD) as ligand. […] CHO/Gα16/mtAEQ/h5HT6-A1 cells were grown in T-flasks in CHO-S-SFM II medium (Gibco BRL), supplemented with 1% dialysed FCS, 2 mM L-glutamine, Geneticin 500 μg/ml and Zeocin 200 μg/ml. […] After thawing cells were centrifuged during 3 minutes at 1500 g at 4° C. […] The assay was established so as to achieve steady state conditions and to optimize specific binding. For the 5-HT6 receptor, membranes from 5.10^5 cells were incubated with 5.0 nM [^3H]-LSD at 37° C. for 30 minutes. Nonspecific binding was determined using 10^−5 M serotonin. Assays were terminated by vacuum filtration through glass fiber filters (GF/B) which had been pretreated with 0.5% polyethyleneimine. Total and bound radioactivity was determined by liquid scintillation counting. […] Compounds were tested at a 4 log concentration range; all determinations were performed as triplicates. IC50 values were determined by non-linear regression analysis using Hill equation curve fitting. The inhibition constants (Ki-values) were calculated from the Cheng-Preushoff equation: Ki=IC50:(1+L/Kd) wherein L represents the concentration radioligand ([^3H]-LSD) in the assay, and Kd the affinity of the radioligand for the receptor. Results are expressed as pKi-values, means±SD of at least three separate experiments.

[2] = molecular target: T1, 5-HT6 receptor; test: In vitro functional activity (antagonism) on human 5-HT6 receptors, CHO-human-5HT6-Aequorin assay; assay type: cell-based; parameters: host or cells: CHO/Gα16/mtAEQ/h5HT6-A1 (CHO AequoScreen recombinant cell line)
Method: Human-5-HT6-Aequorin cells express mitochondrial targeted apo-Aequorin. Cells have to be loaded with coelanterazine, in order to reconstitute active Aequorin. […] This luminescent response is dependent on the agonist concentration. Luminescence is measured using the MicroBeta Jet (Perkin Elmer). Agonistic effects of compounds are expressed as pEC50. […] Compounds were tested at a 5 log concentration range, and 3 independent experiments were performed in duplicate.

[3] = antagonism of 10^-8 M α-methylserotonin induced luminescence, CHO-human-5HT6-Aequorin cells, read-out: 5-HT6 pA2 (converted)
[4] = antagonism of 10^-8 M α-methylserotonin induced luminescence, CHO-human-5HT6-Aequorin cells

| SMILES | Ki [1] [µM] | melting point [°C] | Kb [2, 3] [µM] | also measured |
| --- | --- | --- | --- | --- |
| CCN/C(=N\S(=O)(=O)N(C)c1ccccc1)N1CC(CC)C=N1 (stereo not drawn) [compound 172] | 0.316 | – | – | – |
| CCC1C=NN(/C(=N/S(=O)(=O)c2ccccc2Cl)N(C)C)C1 (stereo not drawn) [compound 5] | – | 94 to 95 | – | – |
| CCN/C(=N\S(=O)(=O)/C=C/c1ccccc1)N1CC(CC)C=N1 (stereo not drawn) [compound 83] | 0.0794 | – | 0.0631 | – |
| CCN/C(=N\S(=O)(=O)c1cccc(Cl)c1)N1N=CC(C)C1c1ccccc1 (stereo not drawn) [compound 152] | 0.158 | – | – | – |
| CN(C)/C(=N\S(=O)(=O)c1ccc(F)cc1)N1CCC(c2ccc(Cl)cc2)=N1 [compound 137] | – | 149 to 150 | – | – |
| CCN/C(=N\S(=O)(=O)c1cccc2ccccc12)N1CC(CC)C=N1 (stereo not drawn) | – | 79 to 80 | – | – |
| CCN/C(=N\S(=O)(=O)c1c(Cl)nc2sccn12)N1CC2(C=N1)CCOCC2 [compound 162] | 0.0631 | – | 0.0126 | – |
| CCC1C=NN(/C(N)=N/S(=O)(=O)c2c(Cl)nc3sccn23)C1 (single isomer, unassigned; (-)) [(−)-123] | – | 176 to 178 | – | – |
| CN/C(=N\S(=O)(=O)c1cccc(Cl)c1)N1CC2(C=N1)CCOCC2 [compound 160] | 0.0794 | – | 0.2 | – |
| CCN/C(=N\S(=O)(=O)c1c(Cl)nc2sccn12)N1CC(CC)C=N1 (single isomer, unassigned; (+)) [(+)-41] | – | – | 0.00126 | – |
| CCN/C(=N\S(=O)(=O)c1cccc(Cl)c1)N1N=CC(CC)C1c1ccccc1 (single isomer, unassigned) [cis(+)-153] | 1.26 | – | – | – |
| CCN/C(=N\S(=O)(=O)c1cccc(Cl)c1)N1CC(CCC(F)(F)F)(CCC(F)(F)F)C=N1 [compound 168] | 0.316 | – | – | – |
| CCN/C(=N\S(=O)(=O)c1cccc(Cl)c1)N1N=CCC1c1ccco1 (stereo not drawn) [compound 144] | 0.00794 | – | – | 5-HT6 pA2 [2, 4]: 8.1 |
| CCN/C(=N\S(=O)(=O)c1ccccc1Cl)N1CCCC1 [reference compound] | – | – | – | Kb [2]: > 10 µM |
| CCC1C=NN(/C(=N/S(=O)(=O)c2ccccc2Cl)NCC2CCNCC2)C1 (stereo not drawn) [compound 11] | – | 131 to 138 | – | – |
| CCN/C(=N\S(=O)(=O)c1cccc(Cl)c1)N1N=CCC1c1ccoc1 (stereo not drawn) [compound 146] | 0.02 | – | 0.0398 | – |
| CCN/C(=N\S(=O)(=O)c1cccc(Cl)c1)N1N=CC(CC)C1c1ccccc1 (single isomer, unassigned) [cis(−)-153] | 0.0501 | – | – | – |
| N/C(=N\S(=O)(=O)c1ccc(Cl)s1)N1CC2(C=N1)CCOCC2 [compound 167] | 0.0631 | – | 0.0316 | – |
| N/C(=N\S(=O)(=O)c1ccc(Cl)s1)N1CC2(C=N1)CCCC2 [compound 107] | – | 184 | – | – |
| CCN/C(=N\S(=O)(=O)c1cccc(Cl)c1)N1N=CC(CC)C1c1ccccc1 (stereo not drawn) [compound 153] | 0.158 | – | – | – |
| CCN/C(=N\S(=O)(=O)c1ccc(N)cc1)N1CC(CC)C=N1 (stereo not drawn) [compound 134] | – | 122 to 125 | – | – |
| CCN/C(=N\S(=O)(=O)c1cccc(Cl)c1)N1N=C(C(C)C)CC1c1ccccc1 (stereo not drawn) [compound 151] | 0.2 | – | 0.501 | – |
| CCC1CN(/C(N)=N/S(=O)(=O)c2ccc(Cl)s2)N=C1C (stereo not drawn) [compound 121] | – | 155 to 156 | – | – |

| SMILES | Ki [1] [µM] | melting point [°C] | Kb [2, 3] [µM] | also measured |
| --- | --- | --- | --- | --- |
| CCC1C=NN(/C(=N/S(=O)(=O)c2ccccc2Cl)N(CC)CC)C1 (stereo not drawn) [compound 1] | – | – | – | Kb [2]: 0.316 µM |
| CCN/C(=N\S(=O)(=O)c1cccc(Cl)c1)N1N=CCC1c1ccsc1 (stereo not drawn) [compound 149] | 0.0126 | – | 0.0316 | – |
| CCN/C(=N\S(=O)(=O)c1cccc(Cl)c1)N1N=CCC1c1ccncc1 (stereo not drawn) [compound 148] | 0.501 | – | – | 5-HT6 pA2 [2, 4]: 6.9 |
| CCN/C(=N\S(=O)(=O)c1ccc(Cl)s1)N1CC2(C=N1)CCOCC2 [compound 165] | 0.0251 | – | 0.02 | – |
| CCN/C(=N\S(=O)(=O)c1cc2ccccc2s1)N1CC(CC)C=N1 (stereo not drawn) [compound 89] | 0.00501 | – | 0.000794 | – |
| CCC1C=NN(/C(=N/S(=O)(=O)c2ccccc2Cl)NCc2ccccc2)C1 (stereo not drawn) [compound 13] | 0.0794 | – | 0.2 | – |
| N/C(=N\S(=O)(=O)c1cccc(Cl)c1)N1CC2(C=N1)CCCC2 [compound 97] | – | 146 to 147 | – | – |
| CCN/C(=N\S(=O)(=O)c1cccc(Cl)c1)N1CCC=N1 [compound 28] | 0.02 | – | 0.02 | 5-HT6 pA2 [2, 4]: 7.1 |
| CCN/C(=N\S(=O)(=O)c1cccc(Cl)c1)N1CC2(C=N1)CCN(C)CC2 [compound 157] | 0.00631 | – | 0.00794 | – |
| CCC1C=NN(/C(N)=N/S(=O)(=O)c2ccc(C)cc2)C1 (stereo not drawn) [compound 31] | – | 131 to 133 | – | – |
| CCN/C(=N\S(=O)(=O)c1ccccc1Cl)N1CC(CC)C=N1 (stereo not drawn) [compound 2, 2-Chloro-N-[ethylamino-(4-ethyl-4,5-dihydro-pyrazol-1-yl)-methylene]-benzenesulfon-amide] | 0.0501 | – | 0.00316 | – |
| N/C(=N\S(=O)(=O)c1cccc(Cl)c1)N1CC2(C=N1)CCOCC2 [compound 161] | 0.0794 | – | 0.1 | – |
| CCN/C(=N\S(=O)(=O)c1ccccc1Cl)N1CCC(CC)=N1 | – | 91 to 93 | – | – |
| CN/C(=N\S(=O)(=O)c1ccc(Cl)s1)N1CC2(C=N1)CCOCC2 [compound 166] | 0.1 | – | 0.0794 | – |
| CCN/C(=N\S(=O)(=O)c1cccc2nsnc12)N1CC(CC)C=N1 (stereo not drawn) [compound 78, Benzo[1,2,5]thiadiazole-4-sulfonic acid ethylamino-(4-ethyl-4,5-dihydro-pyrazol-1-yl)-methyleneamide] | 0.0631 | – | 0.0794 | – |
| CN/C(=N\S(=O)(=O)c1ccc(Cl)s1)N1CC(C)(C)C=N1 [compound 103] | 0.0794 | – | 0.0501 | – |
| CCN/C(=N\S(=O)(=O)c1cccc(Cl)c1)N1CC(c2ccccc2)C(C)=N1 (stereo not drawn) [compound 140] | 0.2 | – | – | – |
| CCN/C(=N\S(=O)(=O)c1cccc(Cl)c1)N1CC(c2ccccc2)C=N1 (stereo not drawn) [compound 139] | 0.251 | – | 0.316 | – |
| CCC1C=NN(/C(N)=N/S(=O)(=O)c2cccc(Cl)c2)C1 (stereo not drawn) [compound 29] | – | 141 to 142 | – | – |
| CCC1C=NN(/C(N)=N/S(=O)(=O)c2ccc(Cl)s2)C1 (stereo not drawn) [compound 105] | – | 115 to 116 | – | – |
| CCN/C(=N\S(=O)(=O)c1ccc(Cl)s1)N1CC(C)(C)C(C)=N1 [compound 112] | 0.2 | – | 0.0631 | – |
| CCN/C(=N\S(=O)(=O)c1cccc(Cl)c1)N1N=CC(CC)C1c1ccccc1 (single isomer, unassigned) [trans-(−)-153] | 0.398 | – | – | – |
| CCN/C(=N\S(=O)(=O)c1cccc(Cl)c1)N1N=CCC1c1ccccn1 (stereo not drawn) [compound 147] | 0.316 | – | 0.794 | – |

| SMILES | Ki [1] [µM] | melting point [°C] | Kb [2, 3] [µM] | also measured |
| --- | --- | --- | --- | --- |
| CN/C(=N\S(=O)(=O)c1c(Cl)nc2sccn12)N1CC2(C=N1)CCOCC2 [compound 163] | 0.251 | – | 0.01 | – |
| CN/C(=N\S(=O)(=O)c1ccc(F)cc1)N1CCC(c2ccc(Cl)cc2)=N1 | – | 188 to 189 | – | – |
| CCN/C(=N\S(=O)(=O)c1cccc(Cl)c1)N1N=CCC1c1ccccc1 (stereo not drawn) [compound 143] | – | 124 to 126 | – | – |
| CCC1CN(/C(N)=N/S(=O)(=O)c2cccc(Cl)c2)N=C1C (stereo not drawn) [compound 113] | – | 121 to 123 | – | – |
| CCN/C(=N\S(=O)(=O)c1c(Cl)nc2sccn12)N1CC(C)(C)C=N1 [compound 114] | – | 139 to 141 | – | – |
| CCC1CN(/C(=N/S(=O)(=O)c2cccc(Cl)c2)NC)N=C1C (stereo not drawn) [compound 109] | – | 155 to 156 | – | – |
| CC1=NN(/C(N)=N/S(=O)(=O)c2c(Cl)nc3sccn23)CC1(C)C [compound 117] | – | 169 to 171 | – | – |
| CCN/C(=N\S(=O)(=O)c1cccc(Cl)c1)N1CCC(C)=N1 [compound 42] | – | – | – | 5-HT6 pA2 [2, 4]: 6.9; pKi ([1]; 5-HT6 pKi): 6.70 |
| CCC1C=NN(/C(N)=N/S(=O)(=O)c2ccccc2Cl)C1 (stereo not drawn) [compound 3] | – | 161 to 163 | – | – |
| CCN/C(=N\S(=O)(=O)N(C)C)N1CC(CC)C=N1 (stereo not drawn) [compound 171] | – | 60 to 61 | – | – |
| CCN/C(=N\S(=O)(=O)c1cccc(Cl)c1)N1N=CCC1c1cccs1 (stereo not drawn) [compound 150] | 0.0316 | – | 0.0316 | – |
| CCN/C(=N\S(=O)(=O)c1ccc(Cl)cc1)N1CC(CC)C=N1 (stereo not drawn) | – | 84 to 86 | – | – |
| CC1(C)C=NN(/C(N)=N/S(=O)(=O)c2c(Cl)nc3sccn23)C1 [compound 127] | – | 198 to 199 | – | – |
| N/C(=N\S(=O)(=O)c1c(Cl)nc2sccn12)N1CC2(C=N1)CCCC2 [compound 131] | – | 174 to 177 | – | – |
| CC1=NN(/C(N)=N/S(=O)(=O)c2cccc(Cl)c2)CC1(C)C [compound 115] | – | 135 to 137 | – | – |
| CCN/C(=N\S(=O)(=O)c1ccc(N(C)C)cc1)N1CC(CC)C=N1 (stereo not drawn) [compound 174] | 0.1 | – | – | – |
| CCN/C(=N\S(=O)(=O)c1cccc(Cl)c1)N1N=CC2CN(C)CCC21 (stereo not drawn) [compound 154] | 0.01 | – | 0.00398 | – |
| N/C(=N\S(=O)(=O)c1c(Cl)nc2sccn12)N1CC2(C=N1)CCOCC2 [compound 164] | 0.0501 | – | 0.0398 | – |
| CCN/C(=N\S(=O)(=O)c1cccs1)N1CC(CC)C=N1 (stereo not drawn) [compound 51] | 0.126 | – | 0.2 | – |
| CCN/C(=N\S(=O)(=O)c1cccc(Cl)c1)N1N=CC(CC)C1c1ccccc1 (single isomer, unassigned) [trans-(+)-153] | 0.126 | – | – | – |
| CCN/C(=N\S(=O)(=O)c1cccc(Cl)c1)N1CC(C)(C)C=N1 [compound 33, 3-Chloro-N-[(4,4-dimethyl-4,5-dihydro-pyrazol-1-yl)-ethylamino-methylene]-benzenesulfonamide] | 0.0158 | – | 0.0126 | – |
| CCN/C(=N\S(=O)(=O)c1cccc(Cl)c1)N1N=CCC1c1cccnc1 (stereo not drawn) [compound 145] | 0.0316 | – | 0.0126 | – |
